The target of assay [1] is T1, Phosphatidylinositol 4,5-bisphosphate 3-kinase catalytic subunit gamma isoform (Homo sapiens, UniProt P48736). Kind of assay: Inhibition of PI3Kgamma (unknown origin).
In assay [2] the target is T2, Phosphatidylinositol 4,5-bisphosphate 3-kinase catalytic subunit delta isoform (Homo sapiens, UniProt O00329).
T2 sequence (O00329 whole entry): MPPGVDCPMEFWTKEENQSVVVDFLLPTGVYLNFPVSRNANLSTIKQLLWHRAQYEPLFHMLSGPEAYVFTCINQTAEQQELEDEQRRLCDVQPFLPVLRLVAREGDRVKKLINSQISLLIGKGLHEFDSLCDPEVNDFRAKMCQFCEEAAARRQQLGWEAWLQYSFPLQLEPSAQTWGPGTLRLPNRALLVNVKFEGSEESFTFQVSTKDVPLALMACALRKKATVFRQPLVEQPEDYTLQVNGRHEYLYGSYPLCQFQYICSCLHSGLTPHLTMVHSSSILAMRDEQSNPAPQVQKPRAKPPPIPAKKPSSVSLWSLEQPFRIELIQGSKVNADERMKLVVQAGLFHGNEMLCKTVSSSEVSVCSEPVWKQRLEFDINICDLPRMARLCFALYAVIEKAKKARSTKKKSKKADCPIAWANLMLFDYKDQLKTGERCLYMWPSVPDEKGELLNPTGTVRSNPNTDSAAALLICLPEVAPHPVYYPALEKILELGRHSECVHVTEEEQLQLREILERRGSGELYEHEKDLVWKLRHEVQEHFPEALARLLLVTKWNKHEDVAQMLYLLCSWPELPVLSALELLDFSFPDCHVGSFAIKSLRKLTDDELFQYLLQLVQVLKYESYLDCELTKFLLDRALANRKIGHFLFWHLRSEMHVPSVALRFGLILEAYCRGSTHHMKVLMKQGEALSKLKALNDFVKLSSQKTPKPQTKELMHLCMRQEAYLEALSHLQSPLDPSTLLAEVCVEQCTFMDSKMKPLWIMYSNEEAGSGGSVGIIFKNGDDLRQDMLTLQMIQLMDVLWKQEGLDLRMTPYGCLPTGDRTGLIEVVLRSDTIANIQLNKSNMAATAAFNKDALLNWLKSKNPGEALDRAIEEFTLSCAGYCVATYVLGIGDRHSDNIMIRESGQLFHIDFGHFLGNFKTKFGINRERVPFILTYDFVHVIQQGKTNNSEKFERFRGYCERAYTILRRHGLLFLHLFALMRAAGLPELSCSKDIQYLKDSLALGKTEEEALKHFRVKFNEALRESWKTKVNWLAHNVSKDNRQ
Kind of assay: Inhibition of PI3Kdelta (unknown origin).

The next assay relates to B cell. Kind of assay: Cytotoxicity against human B cells. The class given is functional, cell-based.
Assay [3] has as its system SU-DHL-6. Kind of assay: Cytotoxicity against human SU-DHL6 cells. Type of assay: functional, cell-based.
Assay [4] concerns the target T1, Phosphatidylinositol 4,5-bisphosphate 3-kinase catalytic subunit gamma isoform. Kind of assay: Inhibition of PI3Kgamma in human SUDHL6 cells. Type of assay: cell-based.
Assay [5] is filed under the species Homo sapiens. Kind of assay: Selectivity ratio of IC50 for PI3Kalpha in human SUDHL6 cells to IC50 for PI3Kdelta in human SUDHL6 cells. Type of assay: cell-based.
The test system of assay [6] is SU-DHL-6. Kind of assay: Cytotoxicity against in human SUDHL6 cells. The class given is functional, cell-based.
The species named for assay [7] is Homo sapiens. Kind of assay: Selectivity ratio of IC50 for PI3Kbeta in human SUDHL6 cells to IC50 for PI3Kdelta in human SUDHL6 cells. Type of assay: cell-based.
The nature of assay [8]: Cytotoxicity against basophil derived from B-cell malignant patient by cell-titer aqueous one solution cell proliferation assay. Type of assay: functional. Conditions: Homo sapiens.
The test system of another assay is Raji. Kind of assay: Cytotoxicity against in human Raji cells. The class given is functional, cell-based.
Assay [9] addresses T2, Phosphatidylinositol 4,5-bisphosphate 3-kinase catalytic subunit delta isoform.
Description: Inhibition of PI3Kdelta (unknown origin) preincubated for 30 mins followed by insulin stimulation for 5 mins by Western blot analysis
Assay [10] concerns the target T3, PI3-kinase p110-delta/p85-alpha (Homo sapiens, UniProt O00329). Kind of assay: Inhibition of N-terminal His6-tagged recombinant full length human p110delta/untagged recombinant full length human p85alpha expressed in baculovirus infected Sf21 insect cells using PIP2 as substrate after 60 mins by HTRF assay. (In general: TR-FRET usually uses a lanthanide donor and a delayed reading to cut background.)

For assay [11], the target named is T2, Phosphatidylinositol 4,5-bisphosphate 3-kinase catalytic subunit delta isoform. Kind of assay: Inhibition of PI3Kdelta in human SU-DHL6 cells. The class given is cell-based.
For assay [12], the target named is T3, PI3-kinase p110-delta/p85-alpha. Kind of assay: Inhibition of N-terminal His6-tagged recombinant full length human p110delta/untagged recombinant full length human p85alpha expressed in baculovirus infected Sf21 insect cells after 80 mins by fluorescence polarization assay. In general terms: In fluorescence polarisation assays a small probe gives low polarisation when free and higher when bound to something large.

For assay [13], the species on record is Homo sapiens. Kind of assay: Selectivity ratio of IC50 for N-terminal His-tagged recombinant human full length p110 beta/untagged recombinant full length human p85alpha IC50 forN-terminal His6-tagged recombinant full length human p110delta/untagged recombinant full length human p85alpha.
Assay [14] concerns the target T1, Phosphatidylinositol 4,5-bisphosphate 3-kinase catalytic subunit gamma isoform. Kind of assay: Inhibition of recombinant N-terminal His-tagged full length human PI3Kgamma expressed in baculovirus expression system after 80 mins by fluorescence polarization assay.
The species entered for assay [15] is Homo sapiens. Kind of assay: Selectivity ratio of IC50 for His-tagged recombiant human full length p110 alpha/p85 alpha IC50 for N-terminal His6-tagged recombinant full length human p110delta/untagged recombinant full length human p85alpha.
Assay [16] has as its target Casein kinase I isoform epsilon (Homo sapiens) (UniProt P49674). Kind of assay: Inhibition of casein kinase 1 epsilon (unknown origin) at 1 uM relative to control.
Assay [17] addresses T1, Phosphatidylinositol 4,5-bisphosphate 3-kinase catalytic subunit gamma isoform. Kind of assay: Inhibition of PI3Kgamma (unknown origin) using PIP2 as substrate preincubated for 10 mins followed by ATP addition measured after 30 mins by HTRF assay.
The target is the same in assay [18]. Kind of assay: Inhibition of GST-tagged PI3Kgamma (unknown origin) using PIP2 as substrate preincubated for 2 hrs followed by ATP addition measured after 30 mins by TR-FRET assay.
Assay [19] can be described thus: Cytotoxicity against human basophil cells after 24 hrs by MTT assay. Type of assay: cell-based. (In general: Formazan colour is commonly taken as a measure of viable cells.)
The test system of the next assay is Jurkat. Kind of assay: Cytotoxicity against human Jurkat cells. Type of assay: functional, cell-based.
The species entered for assay [20] is Homo sapiens. Kind of assay: Selectivity ratio of IC50 for N-terminal His6-tagged recombiant human full length p120gamma IC50 for N-terminal His6-tagged recombinant full length human p110delta/untagged recombinant full length human p85alpha.
Assay [21] deals with Phosphatidylinositol 3-kinase catalytic subunit type 3 (Homo sapiens, UniProt Q8NEB9). Kind of assay: Inhibition of Vps34 (unknown origin).
In assay [22] the target is DNA-dependent protein kinase catalytic subunit (Homo sapiens, UniProt P78527). Kind of assay: Inhibition of DNAPK (unknown origin).
Assay [23] has as its target Serine/threonine-protein kinase SIK1 (Homo sapiens) (UniProt P57059). Kind of assay: Inhibition of SIK (unknown origin) at 1 uM relative to control.

A value given as a limit tells only on which side of the number the result lay.

In general, IC50 refers to the midpoint of a concentration-inhibition curve. A word on the inhibition: it is the change of the read-out against control, counted positive when it falls.

T1 sequence (P48736 whole entry, canonical isoform): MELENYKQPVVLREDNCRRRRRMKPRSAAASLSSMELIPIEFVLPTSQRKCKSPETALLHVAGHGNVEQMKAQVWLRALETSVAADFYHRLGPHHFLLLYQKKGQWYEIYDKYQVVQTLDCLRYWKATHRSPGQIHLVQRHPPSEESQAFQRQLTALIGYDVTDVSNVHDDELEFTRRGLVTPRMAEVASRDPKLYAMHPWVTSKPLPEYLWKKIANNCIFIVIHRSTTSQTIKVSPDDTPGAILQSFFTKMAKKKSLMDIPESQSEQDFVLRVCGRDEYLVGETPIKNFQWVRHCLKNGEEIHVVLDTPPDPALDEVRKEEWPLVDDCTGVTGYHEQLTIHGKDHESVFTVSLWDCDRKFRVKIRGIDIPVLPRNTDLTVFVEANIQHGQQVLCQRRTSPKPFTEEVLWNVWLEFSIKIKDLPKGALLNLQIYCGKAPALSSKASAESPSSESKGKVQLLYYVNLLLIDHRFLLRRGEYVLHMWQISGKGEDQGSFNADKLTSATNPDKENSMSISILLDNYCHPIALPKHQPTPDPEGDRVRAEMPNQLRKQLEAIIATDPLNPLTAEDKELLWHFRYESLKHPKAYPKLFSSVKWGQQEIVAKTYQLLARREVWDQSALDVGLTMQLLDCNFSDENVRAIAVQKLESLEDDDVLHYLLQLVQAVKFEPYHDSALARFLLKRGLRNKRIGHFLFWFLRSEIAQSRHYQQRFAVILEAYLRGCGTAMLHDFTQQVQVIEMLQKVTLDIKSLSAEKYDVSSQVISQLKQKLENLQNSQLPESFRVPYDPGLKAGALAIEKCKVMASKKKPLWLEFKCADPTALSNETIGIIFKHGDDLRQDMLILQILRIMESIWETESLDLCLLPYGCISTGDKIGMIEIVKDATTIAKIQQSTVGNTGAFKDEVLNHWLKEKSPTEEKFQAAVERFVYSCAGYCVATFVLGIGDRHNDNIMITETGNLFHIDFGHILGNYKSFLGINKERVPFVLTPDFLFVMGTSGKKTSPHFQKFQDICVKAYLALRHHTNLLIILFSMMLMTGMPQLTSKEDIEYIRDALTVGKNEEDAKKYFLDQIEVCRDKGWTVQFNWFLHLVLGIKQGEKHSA
T3 sequence (P27986 whole entry, one chain of several): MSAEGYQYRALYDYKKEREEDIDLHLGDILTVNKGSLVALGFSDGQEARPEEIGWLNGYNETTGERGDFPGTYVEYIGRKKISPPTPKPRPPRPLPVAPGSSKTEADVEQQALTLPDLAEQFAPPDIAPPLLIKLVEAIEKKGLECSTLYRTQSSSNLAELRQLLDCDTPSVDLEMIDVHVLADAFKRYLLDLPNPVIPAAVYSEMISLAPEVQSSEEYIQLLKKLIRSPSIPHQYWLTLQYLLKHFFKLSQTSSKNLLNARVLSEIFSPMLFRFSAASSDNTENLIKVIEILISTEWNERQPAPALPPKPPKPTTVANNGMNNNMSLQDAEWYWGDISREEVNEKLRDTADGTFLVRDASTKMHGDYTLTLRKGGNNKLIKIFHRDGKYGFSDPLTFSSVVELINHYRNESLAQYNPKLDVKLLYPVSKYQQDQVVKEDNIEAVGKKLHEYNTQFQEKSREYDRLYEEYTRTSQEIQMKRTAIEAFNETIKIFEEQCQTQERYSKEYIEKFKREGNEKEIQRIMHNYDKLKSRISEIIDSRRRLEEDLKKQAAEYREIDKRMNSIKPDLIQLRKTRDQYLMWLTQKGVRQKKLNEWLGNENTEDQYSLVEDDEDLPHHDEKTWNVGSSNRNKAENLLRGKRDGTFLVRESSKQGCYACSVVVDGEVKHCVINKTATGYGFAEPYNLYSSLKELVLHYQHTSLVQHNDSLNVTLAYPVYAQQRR
Chain of Casein kinase I isoform epsilon (Homo sapiens) (P49674 whole entry, looked up, canonical isoform): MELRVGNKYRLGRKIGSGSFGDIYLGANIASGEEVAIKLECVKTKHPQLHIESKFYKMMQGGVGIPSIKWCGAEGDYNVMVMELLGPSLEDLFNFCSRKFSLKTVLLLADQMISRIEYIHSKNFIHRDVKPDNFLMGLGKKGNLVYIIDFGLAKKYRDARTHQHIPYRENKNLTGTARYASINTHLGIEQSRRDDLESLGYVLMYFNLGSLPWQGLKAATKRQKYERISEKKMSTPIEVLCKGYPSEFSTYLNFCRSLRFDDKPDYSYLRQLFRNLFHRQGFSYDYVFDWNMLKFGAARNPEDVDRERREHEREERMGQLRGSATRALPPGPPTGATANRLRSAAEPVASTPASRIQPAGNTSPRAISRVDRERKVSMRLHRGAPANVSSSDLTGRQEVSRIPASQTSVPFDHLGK
Chain of Serine/threonine-protein kinase SIK1 (Homo sapiens) (P57059 whole entry): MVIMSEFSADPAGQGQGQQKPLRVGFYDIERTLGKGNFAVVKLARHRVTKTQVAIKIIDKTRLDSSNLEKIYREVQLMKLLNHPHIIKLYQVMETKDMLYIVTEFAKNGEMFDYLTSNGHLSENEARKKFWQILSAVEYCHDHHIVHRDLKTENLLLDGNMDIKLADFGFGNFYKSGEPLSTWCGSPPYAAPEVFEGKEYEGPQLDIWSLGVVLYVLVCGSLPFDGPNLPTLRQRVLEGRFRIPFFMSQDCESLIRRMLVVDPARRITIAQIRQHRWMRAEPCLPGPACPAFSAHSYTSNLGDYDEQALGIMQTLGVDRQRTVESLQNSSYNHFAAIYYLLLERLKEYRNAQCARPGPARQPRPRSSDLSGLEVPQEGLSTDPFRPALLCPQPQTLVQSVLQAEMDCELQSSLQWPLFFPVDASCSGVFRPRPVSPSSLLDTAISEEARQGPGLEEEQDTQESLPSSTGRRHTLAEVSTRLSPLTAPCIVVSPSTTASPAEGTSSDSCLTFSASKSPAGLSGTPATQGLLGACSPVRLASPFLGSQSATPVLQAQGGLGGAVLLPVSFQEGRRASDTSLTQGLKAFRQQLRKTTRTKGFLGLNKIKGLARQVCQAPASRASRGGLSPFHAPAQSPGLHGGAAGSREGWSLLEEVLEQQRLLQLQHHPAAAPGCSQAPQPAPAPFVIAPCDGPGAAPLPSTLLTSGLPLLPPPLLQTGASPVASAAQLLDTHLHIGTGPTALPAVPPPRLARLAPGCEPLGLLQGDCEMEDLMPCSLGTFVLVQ
Chain of Phosphatidylinositol 3-kinase catalytic subunit type 3 (Q8NEB9 whole entry): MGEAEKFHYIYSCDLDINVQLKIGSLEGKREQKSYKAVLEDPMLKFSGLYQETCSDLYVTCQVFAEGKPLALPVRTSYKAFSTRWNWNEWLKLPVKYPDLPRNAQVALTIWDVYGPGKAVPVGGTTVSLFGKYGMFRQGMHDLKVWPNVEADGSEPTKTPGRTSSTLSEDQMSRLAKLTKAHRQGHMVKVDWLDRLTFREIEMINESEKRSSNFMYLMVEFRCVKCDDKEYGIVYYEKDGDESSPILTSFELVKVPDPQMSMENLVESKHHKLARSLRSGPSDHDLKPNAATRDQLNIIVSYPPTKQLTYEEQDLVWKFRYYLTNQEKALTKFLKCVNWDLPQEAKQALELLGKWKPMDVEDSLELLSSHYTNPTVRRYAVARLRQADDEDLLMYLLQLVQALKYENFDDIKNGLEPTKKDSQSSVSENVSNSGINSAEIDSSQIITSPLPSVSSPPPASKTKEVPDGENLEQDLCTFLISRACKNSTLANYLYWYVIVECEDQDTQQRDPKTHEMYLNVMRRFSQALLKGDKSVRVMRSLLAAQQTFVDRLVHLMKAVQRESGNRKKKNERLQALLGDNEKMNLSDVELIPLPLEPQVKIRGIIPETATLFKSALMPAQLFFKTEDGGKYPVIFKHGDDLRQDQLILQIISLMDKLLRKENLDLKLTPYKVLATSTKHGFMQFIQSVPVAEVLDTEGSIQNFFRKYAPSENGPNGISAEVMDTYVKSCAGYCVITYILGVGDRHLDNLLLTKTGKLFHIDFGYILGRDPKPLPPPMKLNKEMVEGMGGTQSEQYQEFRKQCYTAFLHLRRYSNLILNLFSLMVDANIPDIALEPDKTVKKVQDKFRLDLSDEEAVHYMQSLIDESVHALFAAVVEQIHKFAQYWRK

As to `C[C@H](Nc1ncnc(N)c1C#N)c1cc2ncc(Cl)n2cc1-c1ccccc1`, the IC50 in assay [1] was determined as 87 nM; in [2], 0.2 nM.

Turning to `CCOc1c([C@H](C)n2nc(C)c3c(N)ncnc32)cc(Cl)c(F)c1[C@@H]1CNC(=O)C1` [PARSACLISIB], in the assay on B cell, the midpoint of inhibition, the IC50, lay at 0.15 nM.

`Cc1csc2cc(C(C)Nc3ncnc4[nH]cnc34)c(-c3ccccc3)c(=O)n12` (configuration not stated): half-maximal inhibition in the assay with SU-DHL-6 [3] (IC50) required 36 nM.

On to `C[C@H](Nc1ncnc2[nH]cnc12)C1=Nc2cccc(Cl)c2S(=O)(=O)N1c1ccccc1`, for which the IC50 in [4] was found to be 34 nM; with SU-DHL-6 [6] it was 6 nM. Besides, the Ratio IC50 in the assay listed under Homo sapiens [5] is 790; in the assay listed under Homo sapiens [7], 170.

In the case of `Cc1csc2nc([C@H](C)Nc3ncnc4[nH]cnc34)c(-c3cccc(F)c3)c(=O)n12` [DEZAPELISIB], it took 35 nM to reach half-maximal inhibition in [8] (IC50).

In the assay on Raji, `C[C@H](Nc1ncnc2nc[nH]c12)c1cc2cccc(Cl)c2c(=O)n1-c1ccccc1` [DUVELISIB] returned an IC50 of 0.36 nM.

Turning to `CC[C@H](Nc1ncnc(N)c1-c1nnc(C)o1)c1nc2cccc(Cl)c2c(=O)n1-c1ccccc1`, the IC50 in [9] worked out at 2 nM.

`COc1ccc(-c2nc3c(O[C@H]4CCN(C(=O)C5CCOCC5)C4)ncnc3n2C)cn1`: the IC50 in [10] was less than 1 nM.

Regarding `C[C@H](Nc1nc(N)nc(N)c1C#N)c1cn2ncc(Cl)c2nc1-c1cccc(F)c1`, the IC50 (in [11]; with SU-DHL-6 [3]) was less than 20 nM each time.

In turn, `CC[C@H](Nc1ncnc2[nH]cnc12)c1nc2cccc(F)c2c(=O)n1-c1ccccc1` [IDELALISIB] gave an IC50 in assay [8] of 846 nM.

For the molecule `C[C@H]1CN(c2nc(N)nc3c2S(=O)(=O)CC3)[C@@H]1c1nn2ccc(Cl)c2c(=O)n1-c1ccccc1`, the IC50 was 4 nM in assay [12] and 3 nM in assay [14]. The Ratio IC50 in the assay filed under Homo sapiens [13] and in the assay listed under Homo sapiens [15] was 250 throughout.

In turn, `CC(c1oc(=O)c2ccccc2c1C1=CCN(C)CC1)n1nc(-c2cc(O)cc(F)c2)c2c(N)ncnc21` (configuration not stated) returned an IC50 in assay [1] greater than 1000 nM.

With `C[C@H](Nc1ncnc(N)c1-c1nnn[nH]1)c1nn2cccc2c(=O)n1-c1ccccc1`, the IC50 in [9] amounted to 0.2 nM.

Molecule `CC(C)Oc1ccc(-c2nn([C@@H](C)c3oc4ccc(F)cc4c(=O)c3-c3cccc(F)c3)c3ncnc(N)c23)cc1F` [UMBRALISIB] registered an inhibition in assay [16] greater than 60%. Further, the IC50 in [17] was greater than 120 nM.

With `C[C@H](Nc1ncnc2[nH]cnc12)c1nc2ccc(F)cc2c(=O)n1-c1ccccc1` [ACALISIB], the figures for the IC50 in [18] and in assay [19] were 3000 nM and 19 nM, respectively.

As for `C[C@H](Nc1ncnc(N)c1C#Cc1ccc(F)cn1)c1nc2c(F)ccc(F)c2c(=O)n1-c1cc(F)cc(F)c1`, in assay [9], the half-maximal inhibitory concentration (IC50) was less than 100 nM.

For `Cc1ccc2c(c1)C(=O)N(C)c1cnc(Nc3cccc(S(=O)(=O)N4CCC(O)CC4)c3)nc1N2C`, the concentration for half-maximal inhibition (IC50) was found to be 1400 nM in the assay with Jurkat and 2 nM in assay [2]. For the same molecule, the Ratio IC50 in the assay listed under Homo sapiens [20] was 3.5.

For the molecule `C[C@H](NC(=O)c1c(N)nn2cccnc12)c1cc2cccc(C#Cc3cnn(C)c3)c2c(=O)n1-c1ccccc1` [EGANELISIB], the IC50 in assay [21] came out at 40000 nM; in [22], 4800 nM. The molecule also returned an inhibition in assay [23] of 88%.

Values taken from ChEMBL document CHEMBL4350952, “Evolution of PI3Kγ and δ Inhibitors for Inflammatory and Autoimmune Diseases” (J Med Chem, 2019).
